Measurements taken from patent US10016432B2 (Legacy Emanuel Hospital & Health Center, priority 2016, dated 2018).
Values joined by “and” are separate entries in the source; they are usually repeats but may differ in a detail not shown here. Identical values can stand only once. “Also recorded” adds a separate entry of the source.

Tests used:
ADK-L cells = experiment: DNA methylation (5 mC ELISA) in ADK-L cells; set-up: reduction of DNA methylation in ADK-L cells: dose or concentration left out as unconfirmed; settings: 24 hours
Description: The in vitro IC50 for each conventional ADK inhibitor was selected as the treatment dose. […] Purified genomic DNA (100 ng) was run on a 5-methylcytosine (5 mC) ELISA. Data shown in FIG. 11 are represented as the mean±SEM (n=8-9) and analyzed by one-way ANOVA followed by Tukey's multiple comparisons test (C) or Krus-kal-Wallis test followed by uncorrected Dunn's test with all comparisons relative to ADK-L vehicle (D).

[1] = test system: 45 receptors, channels and transporters; experiment: PDSP screening at 45 receptors, channels and transporters (other off-target sites); type: binding; settings: 10 μM
Source text: (§1) It is possible that transient treatment with AdK inhibitors would have long-lasting therapeutic benefits for treatment of CNS disorders, not only by raising the basal level of AR activation but also through epigenetic reprogramming. […] SAH in turn inhibits DNA methyltransferases through product inhibition. Because the epigenetic effects related to changes in the DNA methylation status would persist, it might be possible to reduce the duration of drug administration, thus avoiding toxicities associated with prolonged, chronic dosing. A transient dosing regimen might also avoid possible side effects, such as liver toxicity. Compound 38a was submitted to the Psychoactive Drug Screening Program (PDSP) for screening at 45 receptors, channels and transporters. […] Nevertheless, the offtarget interactions of the present set of compounds would have to be examined more extensively.

DNMT activity = DNMT activity in brain nuclear protein extracts of treated mice; type: in vivo, Swiss Webster mice; settings: 3.1 mg/kg i.p., 3 doses every 12 hours, 1 hour after 3rd dose, vs vehicle
Description: (§2) Epigenetic activity in the brain. […] Tissue was harvested 1 hour after the 3rd dose.

[2] = polarity judged by tendency to dissolve in organic solvents; type: physicochemical; settings: based on tendency to dissolve in organic solvents
Source text: The bioavailability and the in vivo activity of these inhibitors remain to be determined. Other nucleoside derivatives were protective in seizure models when administered peripherally. […] Among the new (S)-methanocarba AdK inhibitors, 5′-deoxy analogue 38a and especially the fluoro analogues 38b and 38c appear to be the least polar, based on their tendency to dissolve in organic solvents.

human P2Y2 = biological target: T1, human P2Y2 (Homo sapiens, UniProt P41231); experiment: calcium transients, P2Y2 in 1321N1 astrocytoma cells; type: cell-based; settings: 10 μM
T1 construct: expressed in transfected cells; host or cells: 1321N1 astrocytoma cells
T1 sequence (P41231 whole entry): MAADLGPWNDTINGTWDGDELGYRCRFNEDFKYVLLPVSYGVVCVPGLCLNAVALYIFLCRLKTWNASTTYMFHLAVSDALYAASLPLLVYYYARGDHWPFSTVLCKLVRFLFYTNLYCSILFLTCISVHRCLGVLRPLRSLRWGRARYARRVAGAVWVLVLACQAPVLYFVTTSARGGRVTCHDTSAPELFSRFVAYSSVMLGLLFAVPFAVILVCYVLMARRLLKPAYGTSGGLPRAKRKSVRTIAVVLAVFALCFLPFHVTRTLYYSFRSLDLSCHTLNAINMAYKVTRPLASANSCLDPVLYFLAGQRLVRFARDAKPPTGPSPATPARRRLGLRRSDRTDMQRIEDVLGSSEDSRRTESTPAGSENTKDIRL
Source text: as §1

human P2Y1 = biological target: T2, human P2Y1 (Homo sapiens, UniProt P47900); experiment: calcium transients, P2Y1 in 1321N1 astrocytoma cells; type: cell-based; settings: 10 μM
T2 construct: expressed in transfected cells; host or cells: 1321N1 astrocytoma cells
T2 sequence (P47900 whole entry): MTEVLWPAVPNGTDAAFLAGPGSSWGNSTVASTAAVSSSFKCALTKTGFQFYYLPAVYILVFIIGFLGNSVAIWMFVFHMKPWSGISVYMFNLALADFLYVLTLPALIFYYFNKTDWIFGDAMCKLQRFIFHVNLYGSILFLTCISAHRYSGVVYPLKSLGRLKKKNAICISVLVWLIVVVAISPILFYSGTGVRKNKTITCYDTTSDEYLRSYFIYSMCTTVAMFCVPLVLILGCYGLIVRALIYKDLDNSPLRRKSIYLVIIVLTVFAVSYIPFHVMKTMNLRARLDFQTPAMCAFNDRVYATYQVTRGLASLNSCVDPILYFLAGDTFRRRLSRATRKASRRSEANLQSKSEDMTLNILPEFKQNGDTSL
Source text: as §1

[3] = biological target: T3, protease-activated receptor (PAR)1 (Homo sapiens, UniProt P25116); experiment: PAR1 agonist/antagonist test in mouse KOLF cells; type: cell-based; settings: 10 μM
T3 construct: expressed in transfected cells; host or cells: mouse KOLF cells
T3 sequence (P25116 22-425): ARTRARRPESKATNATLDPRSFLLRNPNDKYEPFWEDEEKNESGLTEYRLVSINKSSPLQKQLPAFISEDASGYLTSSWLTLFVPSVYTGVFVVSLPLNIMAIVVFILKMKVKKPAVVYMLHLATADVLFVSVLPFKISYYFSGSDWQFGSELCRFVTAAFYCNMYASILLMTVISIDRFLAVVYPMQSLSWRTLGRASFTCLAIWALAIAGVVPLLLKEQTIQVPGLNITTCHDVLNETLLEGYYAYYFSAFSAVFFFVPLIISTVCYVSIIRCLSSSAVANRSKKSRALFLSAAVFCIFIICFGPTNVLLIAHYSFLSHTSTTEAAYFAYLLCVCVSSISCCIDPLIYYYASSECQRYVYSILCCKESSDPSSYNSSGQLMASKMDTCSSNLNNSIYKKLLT
Source text: as §1

human P2Y4 = biological target: T4, human P2Y4 (Homo sapiens, UniProt P51582); experiment: calcium transients, P2Y4 in 1321N1 astrocytoma cells; type: cell-based; settings: 10 μM
T4 construct: expressed in transfected cells; host or cells: 1321N1 astrocytoma cells
T4 sequence (P51582 whole entry): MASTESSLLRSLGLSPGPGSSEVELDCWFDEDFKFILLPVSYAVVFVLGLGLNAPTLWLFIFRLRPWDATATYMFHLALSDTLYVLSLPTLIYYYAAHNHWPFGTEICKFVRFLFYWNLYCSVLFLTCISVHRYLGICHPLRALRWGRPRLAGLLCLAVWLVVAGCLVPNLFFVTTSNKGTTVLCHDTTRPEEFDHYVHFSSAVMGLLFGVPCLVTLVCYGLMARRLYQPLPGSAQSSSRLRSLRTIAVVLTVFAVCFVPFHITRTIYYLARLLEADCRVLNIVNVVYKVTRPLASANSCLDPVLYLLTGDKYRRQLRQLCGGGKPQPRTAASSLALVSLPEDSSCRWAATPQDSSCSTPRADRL
Source text: as §1

hAdK [4] = biological target: T5, hAdK (Homo sapiens, UniProt P55263); experiment: commercial nonisotopic spectrophotometric hAdK kinetic activity assay (340 nm, inosine as substrate); type: biochemical
T5 construct: purchased
T5 sequence (P55263 whole entry): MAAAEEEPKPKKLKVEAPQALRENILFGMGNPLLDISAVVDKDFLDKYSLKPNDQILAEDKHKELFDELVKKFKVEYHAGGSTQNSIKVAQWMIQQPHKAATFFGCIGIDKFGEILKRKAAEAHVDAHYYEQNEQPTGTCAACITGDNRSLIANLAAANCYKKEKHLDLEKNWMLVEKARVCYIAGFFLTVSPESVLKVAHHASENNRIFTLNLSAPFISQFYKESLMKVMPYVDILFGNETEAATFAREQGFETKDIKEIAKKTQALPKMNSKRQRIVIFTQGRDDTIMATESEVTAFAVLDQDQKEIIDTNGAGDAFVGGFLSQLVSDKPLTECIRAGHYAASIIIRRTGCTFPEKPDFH
Description: The nucleoside derivatives were tested for inhibitory activity at hAdK using a commercial, nonisotopic assay for the measurement of hAdK kinetic activity based on continuous monitoring of enzymatic activity at 340 nm (appearance of reduced nicotinamide-adenine dinucleotide from a coupled enzymatic reaction). The hAdK-catalyzed phosphorylation of inosine to inosine 5′-monophosphate is coupled to the inosine 5′-monophosphate dehydrogenase-dependent oxidation of the product. […] Percent inhibition of hAdK activity was calculated by determining the slope of the hAdK reaction during the linear phase of the enzymatic reaction (first 40 min) (see Table 1, below). […] Each inhibitor was analyzed at the following concentrations (μM): of 50, 20, 1, 0.50, 0.10, 0.020 and 0.010.

ADK-S cells = experiment: DNA methylation in ADK-S cells
[5] = side effects: mouse activity in an open field; type: in vivo, mice; settings: epigenetically active dose, i.p.
Description: Side effects were indexed by mouse activity in an open field for 20 minutes following a single i.p. injection of vehicle, 5-ITU or compound 38a. […] Data are presented as the mean±SEM and analyzed by one-way ANOVA then uncorrected Fisher's LSD test with all comparisons relative to vehicle or Kruskal-Wallis then Dunn's multiple comparisons.

ADK-null cells = experiment: DNA methylation in ADK-null cells (off-target); type: cell-based; settings: vs vehicle
Source text: To test for nonspecific activities of ADK inhibitors on DNA methylation, we tested our set of inhibitors on ADK-null cells, which are hypomethylated and can be used to identify treatments that increase DNA methylation (whereas ADK-L cells display a hypermethylated ceiling effect).

[6] = biological target: human 5HT7 (serotonin) receptor (Homo sapiens, UniProt P34969); experiment: PDSP radioligand binding, 5HT7; settings: read-out: Ki, inhibition of radioligand binding
Sequence of human 5HT7 (serotonin) receptor (P34969 whole entry): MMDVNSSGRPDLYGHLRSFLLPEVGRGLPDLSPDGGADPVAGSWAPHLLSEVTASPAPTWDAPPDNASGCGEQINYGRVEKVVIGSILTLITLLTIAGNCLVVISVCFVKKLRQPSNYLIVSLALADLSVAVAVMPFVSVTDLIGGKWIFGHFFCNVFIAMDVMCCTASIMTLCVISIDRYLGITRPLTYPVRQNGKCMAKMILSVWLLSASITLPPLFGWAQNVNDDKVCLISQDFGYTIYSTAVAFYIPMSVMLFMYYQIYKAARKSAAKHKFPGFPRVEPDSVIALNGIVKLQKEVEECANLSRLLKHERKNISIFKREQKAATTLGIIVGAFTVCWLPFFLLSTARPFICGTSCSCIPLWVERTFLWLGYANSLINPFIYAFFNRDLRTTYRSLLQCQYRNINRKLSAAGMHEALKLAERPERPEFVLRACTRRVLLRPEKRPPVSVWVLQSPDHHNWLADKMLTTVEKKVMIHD
Source text: as §1

[7] = test system: Hippocampal DNA methylation; experiment: hippocampal / brain DNA methylation in treated mice; type: in vivo, Swiss Webster mice; settings: 3.1 mg/kg i.p., 3 doses every 12 hours, 1 hour after 3rd dose, vs controls
Description: as §2

human P2Y11 = biological target: T6, human P2Y11 (Homo sapiens, UniProt Q96G91); experiment: calcium transients, P2Y11 in 1321N1 astrocytoma cells; type: cell-based; settings: 10 μM
T6 construct: expressed in transfected cells; host or cells: 1321N1 astrocytoma cells
T6 sequence (Q96G91 1-374): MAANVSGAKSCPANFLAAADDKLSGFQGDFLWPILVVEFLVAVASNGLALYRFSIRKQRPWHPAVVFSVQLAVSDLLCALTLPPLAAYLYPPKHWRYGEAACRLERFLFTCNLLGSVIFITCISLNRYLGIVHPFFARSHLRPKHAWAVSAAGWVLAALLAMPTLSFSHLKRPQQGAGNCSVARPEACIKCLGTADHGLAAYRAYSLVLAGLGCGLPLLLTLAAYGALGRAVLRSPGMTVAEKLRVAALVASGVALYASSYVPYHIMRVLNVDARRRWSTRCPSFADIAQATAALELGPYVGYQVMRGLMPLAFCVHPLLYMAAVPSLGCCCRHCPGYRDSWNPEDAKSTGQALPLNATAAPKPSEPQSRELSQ
Source text: as §1

hAdK [8] = biological target: T5, hAdK; settings: read-out: Km as substrate of hAdK; cited from earlier work

With `C[C@@H]1[C@@H](O)[C@@H](O)[C@@]2(n3cc(-c4ccccc4)c4c(Nc5ccccc5)ncnc43)C[C@@H]12` [Compound 38a] the “effect on DNA methylation in ADK-L cells, in words” value (ADK-L cells; 55 and 38a at 26 nM, known inhibitors at their IC50) was “reduces DNA methylation specifically in ADK-L cells”, the “reduction of DNA methylation in ADK-L cells” value (ADK-L cells; […] nM (equimolar), vs ADK-L vehicle) was over 50% and the “inhibition of binding at the other off-target sites” value [1] was under 50%. The “DNMT activity in brain nuclear protein extracts” value (DNMT activity) was “significantly reduced”, the “DNMT activity in brain nuclear protein extracts” value (DNMT activity; listed as 38A) was “reduced” and the polarity [2] was “least polar”. The “agonist or antagonist activity at P2Y2” value (human P2Y2) was “inactive”, the “agonist or antagonist activity at P2Y1” value (human P2Y1) was “inactive” and the “agonist or antagonist activity at PAR1” value [3] was “inactive”. The “agonist or antagonist activity at P2Y4” value (human P2Y4) was “inactive”, the “hAdK inhibition, in words” value (hAdK [4]) was “commensurate with 2 at most concentrations” and the “concentration at which inhibition begins to vary significantly from 2” value (hAdK [4]; Bonferroni post hoc vs 2) was “never significantly varied from 2”. The “potency relative to reference compound 2” value (hAdK [4]; hAdK inhibition) was “approximately two-fold less potent”, the IC50 (hAdK [4]; hAdK, inosine as substrate, read-out: IC50 for hAdK) was < 100 nM and 88 nM and the “effect on DNA methylation in ADK-S cells” value (ADK-S cells) was “without any off-target effects”. The “sedation / sedative side effects” value [5] was “not associated with any overt signs of sedation”, the “effect on DNA methylation in ADK-null cells (non-specific)” value (ADK-null cells) was “greater specificity” and the “effect on DNA methylation in ADK-null cells (non-specific)” value (ADK-null cells; listed as 38A) was “no effect on DNA methylation; also recorded: without any off-target effects”. The Ki [6] was 710 nM, the “hippocampal (brain) DNA methylation levels” value [7] was “reduced” and the “hippocampal (brain) DNA methylation levels” value ([7]; listed as 38A) was “reduced; also recorded: reduces DNA methylation in the hippocampus”. For the same compound, the “agonist or antagonist activity at P2Y11” value (human P2Y11) was “inactive”.

For `Nc1ncnc2c1ncn2[C@@H]1O[C@H](CO)[C@@H](O)[C@H]1O` [adenosine], the Km (hAdK [8]) is listed as 0.7 µM.
